According to patent publication US20020193424A1, “Human cancerous cell anti-proliferation and survival inhibition agent” (priority 2000, published 2002):

Tests used:
[1] = test system: Human prostate carcinoma DU145 cells; experiment: FBS-stimulated cell growth of DU145 cells (total cell number, Coulter Counter); assay type: cell-based; conditions: 10% FBS, 50, 100 and 200 micromolars, counted at 48 and 72 hours, compared with control and silymarin
Procedure: (§1) 1. Cells and Culture Conditions. Human prostate carcinoma DU145 cells were obtained from American Type Culture Collection (Bethesda, Md.), and cultured in RPMI 1640 containing 10% fetal bovine serum (FBS) and 1% penicillin-streptomycin under standard culture conditions. Alternatively, DU145 cells were cultured in 10% charcoal/dextran stripped FBS (cFBS) and 1% penicillin-streptomycin in the presence or absence of 1 nM DHT.
(§2) Silymarin and Silibinin derivatives were dissolved in ethanol for all the treatments. […] The dose and time of silibinin derivatives treatment are depicted in the associated drawings.
(§3) 2. Results. Referring to FIGS. 3 through 6, for the studies assessing the effect of silibinin derivatives on FBS-stimulated cell growth and cell death, DU145 cells were plated at 1×10^5 cells per 60 mm plate in RPMI 1640 containing 10% FBS and treated with either ethanol alone or varying concentrations of silymarin (“Si”) and silibinin derivatives (“D1” and “D2”) (50, 100 and 200 micromolars). Cells were counted at 48 and 72 hours after treatment with the subject compounds.
(§4) At the counting intervals, cells were trypsinized and collected in counting vials. Each plate was washed thoroughly with isotonic buffer containing 0.1% formalin and washings were collected in the original vials with trypsinized cells. Each vial was counted using Coulter Counter to determine the total cell number.

[2] = test system: Human prostate carcinoma DU145 cells; experiment: Percent cell death of DU145 cells; assay type: cell-based; conditions: 10% FBS, 50, 100 and 200 micromolars, 48 and 72 hours, compared with control and silymarin
Procedure: as §1, §2, §3, §4

[3] = human, in vivo; cited from earlier work

Row | Substance | inhibition of cell growth [1] | percentage of cell death [2] | tolerability / adverse effects [3]
1 | 2,3-Dihydro-3-[3,4-dimethoxyphenyl]-2-[hydroxymethyl]-5,7-dimethoxy-4-oxobenzopyran-2-yl]benzodioxin [Derivative #1] | remarkably improved inhibition of cell growth over the control and silymarin | likewise improved percentage of cell death | 
2 | Silymarin |  |  | well tolerated and largely free of adverse effects
